This note sets out measurements from ChEMBL document CHEMBL3045228, “QSAR study of a series of acyl coenzyme A (CoA): cholesterol acyltransferase inhibitors using genetic function approximation” (Med Chem Res, 2011).

This assay is described as follows: Inhibition of Acyl-coenzyme A:cholesterol acyltransferase (unknown origin) assessed as intracellular cholesterol esterification by cell based assay. Particulars: Homo sapiens.

For `CCCCCC(C)N(Cc1ccc(OCC(C)C)cc1)C(Nc1ccc(OC)cc1OC)=C1C(=O)OC(C)(C)OC1=O` (centres undefined), the IC50 reads like this: (read-out: IC50) 550 nM; (read-out: pIC50 (converted)) 550 nM.

Consider `COc1ccc(NC(NCCCCCCCCc2ccc(C(C)(C)C)cc2)=C2C(=O)OC(C)(C)OC2=O)c(OC)c1`, for which the IC50 was 900 nM (read-out: IC50) and 899 nM (read-out: pIC50 (converted)).

Turning to `COc1ccc(NC(NCc2ccc(C(C)(C)C)cc2)=C2C(=O)OC(C)(C)OC2=O)c(OC)c1`, the IC50 by setting is: (read-out: IC50) 260 nM; (read-out: pIC50 (converted)) 260 nM.

Turning to `CCCCCC(C)N(Cc1ccc(CC(C)(C)C)cc1)C(Nc1ccc(OC)cc1OC)=C1C(=O)OC(C)(C)OC1=O` (centres undefined), the IC50 runs as follows: (read-out: IC50) 830 nM; (read-out: pIC50 (converted)) 830 nM.

Turning to `COc1ccc(NC(=C2C(=O)OC(C)(C)OC2=O)N(Cc2ccc(CC(C)(C)C)cc2)CC2CCCC2c2ccccc2)c(OC)c1` (centres undefined), the IC50 was 290 nM (read-out: IC50) and 290 nM (read-out: pIC50 (converted)).

Regarding `COc1ccc(NC(NCCc2ccccc2)=C2C(=O)OC(C)(C)OC2=O)c(OC)c1`, the IC50 by setting is: (read-out: IC50) 2800 nM; (read-out: pIC50 (converted)) 2800 nM.

As to `CCCCCc1ccc(CCCCCCCCNC(Nc2ccc(OC)cc2OC)=C2C(=O)OC(C)(C)OC2=O)cc1`, the IC50 is 840 nM (read-out: IC50) and 839 nM (read-out: pIC50 (converted)).

Regarding `Cc1cc(N(C)C)cc(C)c1NC(NCCCCCCCCc1ccc(C(C)(C)C)cc1)=C1C(=O)OC(C)(C)OC1=O`, the IC50 is, setting by setting: (read-out: IC50) 980 nM; (read-out: pIC50 (converted)) 979 nM.

For the compound `CCCCCC(C)N(Cc1ccc(C(C)(C)C)cc1)C(Nc1cc(OC)c(OC)c(OC)c1)=C1C(=O)OC(C)(C)OC1=O` (centres undefined), the IC50 (read-out: IC50) is 770 nM and the IC50 (read-out: pIC50 (converted)) was 769 nM.

With `CCCCCC(C)N(Cc1ccc(C(C)(C)C)cc1)C(Nc1ccc(N(C)C)cc1)=C1C(=O)OC(C)(C)OC1=O` (centres undefined), the IC50 runs as follows: (read-out: IC50) 250 nM; (read-out: pIC50 (converted)) 250 nM.

As to `CC(C)CCOc1ccc(CCCCCCCCNC(Nc2ccc(N(C)C)cc2)=C2C(=O)OC(C)(C)OC2=O)cc1`, the IC50 by setting is: (read-out: IC50) 370 nM; (read-out: pIC50 (converted)) 370 nM.

For the compound `CCCCCCOc1ccc(NC(NCCCCCCCCc2ccc(C(C)(C)C)cc2)=C2C(=O)OC(C)(C)OC2=O)cc1`, the IC50 runs as follows: (read-out: IC50) 500 nM; (read-out: pIC50 (converted)) 500 nM.

With `CC1(C)OC(=O)C(=C(NCCCCCCCCc2ccc(C(C)(C)C)cc2)Nc2ccc(Oc3ccccc3)cc2)C(=O)O1`, the IC50 by setting is: (read-out: IC50) 920 nM; (read-out: pIC50 (converted)) 920 nM.

As for `CCCCCC(C)N(Cc1ccc(C(C)(C)C)cc1)C(Nc1ccc(OCCCC)cc1)=C1C(=O)OC(C)(C)OC1=O` (centres undefined), the IC50 (read-out: IC50) was 230 nM and the IC50 (read-out: pIC50 (converted)) was 230 nM.

Consider `COc1ccc(NC(NCCCCCCCCc2ccc(CC(C)C)cc2)=C2C(=O)OC(C)(C)OC2=O)c(OC)c1`, for which the IC50 by setting is: (read-out: IC50) 910 nM; (read-out: pIC50 (converted)) 910 nM.

For the compound `CCCCCC(C)N(Cc1ccc(CC(C)C)cc1)C(Nc1ccc(OC)cc1OC)=C1C(=O)OC(C)(C)OC1=O` (centres undefined), the IC50 reads like this: (read-out: IC50) 240 nM; (read-out: pIC50 (converted)) 240 nM.

Regarding `CCCCCC(C)N(Cc1ccc(CC(C)(C)C)cc1)C(Nc1c(C)cc(N(C)C)cc1C)=C1C(=O)OC(C)(C)OC1=O` (centres undefined), the IC50 runs as follows: (read-out: IC50) 380 nM; (read-out: pIC50 (converted)) 380 nM.

For `CCCCCC(C)N(Cc1ccc(OC(C)CCC)cc1)C(Nc1ccc(OC)cc1OC)=C1C(=O)OC(C)(C)OC1=O` (centres undefined), the IC50 (read-out: IC50) was determined as 540 nM and the IC50 (read-out: pIC50 (converted)) was 540 nM.

Regarding `CCCCCCC(CCCCCC)N(Cc1ccc(CC(C)C)cc1)C(Nc1ccc(N(C)C)cc1)=C1C(=O)OC(C)(C)OC1=O`, the IC50 was 44 nM (read-out: IC50) and 44 nM (read-out: pIC50 (converted)).

With `CCCCCC(C)N(Cc1ccc(OCCC(C)C)cc1)C(Nc1ccc(N(C)C)cc1)=C1C(=O)OC(C)(C)OC1=O` (centres undefined), the IC50 (read-out: IC50) came to 210 nM and the IC50 (read-out: pIC50 (converted)) is 210 nM.

As for `COc1ccc(NC(=C2C(=O)OC(C)(C)OC2=O)N(Cc2ccc(CC(C)C)cc2)C(C)CCCC(C)C)c(OC)c1` (centres undefined), the IC50 is, setting by setting: (read-out: IC50) 370 nM; (read-out: pIC50 (converted)) 370 nM.

For `CCCCCc1ccc(CN(C(Nc2ccc(OC)cc2OC)=C2C(=O)OC(C)(C)OC2=O)C(C)CCCCC)cc1` (centres undefined), the IC50 is 360 nM (read-out: IC50) and 360 nM (read-out: pIC50 (converted)).

As to `CCCCCc1ccc(CN(C(Nc2ccc(N(C)C)cc2)=C2C(=O)OC(C)(C)OC2=O)C(C)CCCCC)cc1` (centres undefined), the IC50 runs as follows: (read-out: IC50) 260 nM; (read-out: pIC50 (converted)) 260 nM.

`CC(C)CCCC(C)N(Cc1ccc(CC(C)C)cc1)C(Nc1ccc(N(C)C)cc1)=C1C(=O)OC(C)(C)OC1=O` (centres undefined): the IC50 (read-out: IC50) is 270 nM and the IC50 (read-out: pIC50 (converted)) is 270 nM.

As for `CCCCCCOc1ccc(NC(=C2C(=O)OC(C)(C)OC2=O)N(Cc2ccc(CC(C)C)cc2)C(C)CCCCC)cc1` (centres undefined), the IC50 runs as follows: (read-out: IC50) 410 nM; (read-out: pIC50 (converted)) 410 nM.

On to `CCCCCC(C)N(Cc1ccc(CC(C)C)cc1)C(Nc1ccc(N(C)C)cc1C)=C1C(=O)OC(C)(C)OC1=O` (centres undefined), for which the IC50 (read-out: IC50) was determined as 350 nM and the IC50 (read-out: pIC50 (converted)) was 350 nM.

Turning to `CCCCCC(C)N(Cc1ccc(CC(C)(C)C)cc1)C(Nc1ccc(N(C)C)cc1C)=C1C(=O)OC(C)(C)OC1=O` (centres undefined), the IC50 runs as follows: (read-out: IC50) 260 nM; (read-out: pIC50 (converted)) 260 nM.

Turning to `COc1cc(OC)c(NC(NCCCCCCCCc2ccc(CC(C)(C)C)cc2)=C2C(=O)OC(C)(C)OC2=O)c(OC)c1`, the IC50 is 700 nM (read-out: IC50) and 700 nM (read-out: pIC50 (converted)).

With `CCCCC(CC)N(Cc1ccc(CC(C)(C)C)cc1)C(Nc1ccc(OC)cc1OC)=C1C(=O)OC(C)(C)OC1=O` (centres undefined), the IC50 is, setting by setting: (read-out: IC50) 540 nM; (read-out: pIC50 (converted)) 540 nM.

Take `CCCCCC(C)N(Cc1ccc(CCC(C)C)cc1)C(Nc1ccc(N(C)C)cc1C)=C1C(=O)OC(C)(C)OC1=O` (centres undefined): the IC50 (read-out: IC50) was 160 nM and the IC50 (read-out: pIC50 (converted)) was 160 nM.

On to `CCCCC(CC)N(Cc1ccc(CC(C)(C)C)cc1)C(Nc1ccc(N(C)C)cc1)=C1C(=O)OC(C)(C)OC1=O` (centres undefined), for which the IC50 runs as follows: (read-out: IC50) 190 nM; (read-out: pIC50 (converted)) 640 nM.

As to `CCCCCC(C)N(Cc1ccc(OCC(C)C)cc1)C(Nc1ccc(N(C)C)cc1)=C1C(=O)OC(C)(C)OC1=O` (centres undefined), the IC50 (read-out: IC50) was found to be 90 nM and the IC50 (read-out: pIC50 (converted)) was 89.9 nM.

As for `CCCCCC(C)N(Cc1ccc(CC(C)(C)C)cc1)C(Nc1ccc(C)cc1C)=C1C(=O)OC(C)(C)OC1=O` (centres undefined), the IC50 was 490 nM (read-out: IC50) and 490 nM (read-out: pIC50 (converted)).

With `COc1ccc(NC(NCCCCCCCCCCCc2ccc(C(C)(C)C)cc2)=C2C(=O)OC(C)(C)OC2=O)c(OC)c1`, the IC50 is 2300 nM (read-out: IC50) and 2300 nM (read-out: pIC50 (converted)).

For the compound `COc1cc(NC(NCCCCCCCCc2ccc(C(C)(C)C)cc2)=C2C(=O)OC(C)(C)OC2=O)cc(OC)c1OC`, the IC50 was 2800 nM (read-out: IC50) and 2800 nM (read-out: pIC50 (converted)).

For `CC(C)CCc1ccc(CN(C(Nc2ccc(N(C)C)cc2)=C2C(=O)OC(C)(C)OC2=O)C(CC(C)C)CC(C)C)cc1`, the IC50 was 1300 nM (read-out: IC50) and 1300 nM (read-out: pIC50 (converted)).

On to `CC(C)(C)Cc1ccc(CCCCCCCNC(Nc2cc(C(C)(C)C)c(O)c(C(C)(C)C)c2)=C2C(=O)OC(C)(C)OC2=O)cc1`, for which the IC50 is, setting by setting: (read-out: IC50) 240 nM; (read-out: pIC50 (converted)) 240 nM.

As for `CN(C)c1ccc(NC(NCCCCCCCCc2ccc(C(C)(C)C)cc2)=C2C(=O)OC(C)(C)OC2=O)cc1`, the IC50 (read-out: IC50) was 1100 nM and the IC50 (read-out: pIC50 (converted)) was 1100 nM.

For `COc1ccc(NC(NCCCCCCCCc2ccc(OCCC(C)C)cc2)=C2C(=O)OC(C)(C)OC2=O)c(OC)c1`, the IC50 by setting is: (read-out: IC50) 1500 nM; (read-out: pIC50 (converted)) 1500 nM.

As to `COc1cc(NC(NCCCCCCCCc2ccc(OCCC(C)C)cc2)=C2C(=O)OC(C)(C)OC2=O)cc(OC)c1OC`, the IC50 is, setting by setting: (read-out: IC50) 3500 nM; (read-out: pIC50 (converted)) 3500 nM.

On to `CCCCOc1ccc(NC(=C2C(=O)OC(C)(C)OC2=O)N(Cc2ccc(C(C)(C)C)cc2)C(C)CCCC(C)C)cc1` (centres undefined), for which the IC50 reads like this: (read-out: IC50) 690 nM; (read-out: pIC50 (converted)) 690 nM.

As to `COc1ccc(NC(=C2C(=O)OC(C)(C)OC2=O)N(Cc2ccc(C(C)(C)C)cc2)C(C)CCCC(C)C)c(OC)c1` (centres undefined), the IC50 reads like this: (read-out: IC50) 230 nM; (read-out: pIC50 (converted)) 230 nM.

Consider `CC(C)Cc1ccc(CN(C(Nc2ccc(N(C)C)cc2)=C2C(=O)OC(C)(C)OC2=O)C(C)CCCC(C)(C)O)cc1` (centres undefined), for which the IC50 was 5200 nM (read-out: IC50) and 5200 nM (read-out: pIC50 (converted)).

For `CCCCCc1ccc(CN(C(Nc2ccc(N(C)C)cc2C)=C2C(=O)OC(C)(C)OC2=O)C(C)CCCCC)cc1` (centres undefined), the IC50 (read-out: IC50) was determined as 680 nM and the IC50 (read-out: pIC50 (converted)) was 242 nM.

As to `COc1ccc(NC(NCCCCCCCCc2ccc(CCC(C)C)cc2)=C2C(=O)OC(C)(C)OC2=O)c(OC)c1`, the IC50 is, setting by setting: (read-out: IC50) 3000 nM; (read-out: pIC50 (converted)) 3000 nM.

In the case of `COc1ccc(NC(=C2C(=O)OC(C)(C)OC2=O)N(Cc2ccc(CCC(C)C)cc2)C(CC(C)C)CC(C)C)c(OC)c1`, the IC50 was 1300 nM (read-out: IC50) and 1300 nM (read-out: pIC50 (converted)).

In the case of `COc1ccc(NC(=C2C(=O)OC(C)(C)OC2=O)N(Cc2ccc(CC(C)C)cc2C)C(CO[SiH](C)C)CC(C)C)c(OC)c1` (centres undefined), the IC50 (read-out: IC50) came to 530 nM and the IC50 (read-out: pIC50 (converted)) was 530 nM.
